Measured values taken from EP0404945A1 (priority 1989, dated 1990).
Like-named read-outs stand apart in the source and are kept apart here.

Experiments:
[1] = in vivo; cited from earlier work
houseflies = settings: house fly, in vivo
Alternaria radicina = assay type: cell-based
Virus of hepatitis B = assay: microbe, parasite or virus in culture; settings: 0.5 h, read-out: Death of viruses (%) at 30 minutes exposure, Virus of hepatitis B
Venturia inaequalis = assay type: cell-based
Colibacillus = assay: microbe, parasite or virus in culture; assay type: cell-based; settings: read-out: Efficiency of the preparation, % Colibacillus
Candida albicans = assay: microbe, parasite or virus in culture; assay type: cell-based
Penicillium sporum = assay type: cell-based
Staphylococcus aureus = assay: microbe, parasite or virus in culture; assay type: cell-based; settings: read-out: Efficiency of the preparation, % Staphylococcus aureus
Aspergillus niger = assay type: cell-based
ascarid ovi = assay: animal or person; assay type: in vivo, pig.ascarid; settings: read-out: Death of ascarid ovi, % Tests laboratory
Candida tropicalis = assay: microbe, parasite or virus in culture; assay type: cell-based
Helminthosporum saturem = assay type: cell-based
Fusarium oxysporum = assay type: cell-based
[2] = system: Infectant of poliomyelitis

Structure (SMILES)	LD50 [1]	Death of flies, % Tests laboratory (houseflies) [%]	Death of flies, % after 48 hours (houseflies; 48 h) [%]	Death of flies, % after 72 hours (houseflies; 72 h) [%]	Mycelium growth inhibition, % to the control, Alternaria radicina (Alternaria radicina) [%]	killing at 1 % (Virus of hepatitis B) [%]	Mycelium growth inhibition, % to the control, Venturia inaequalis (Venturia inaequalis) [%]	killing at 0.5 % (Colibacillus) [%]	killing at 0.05 % (Candida albicans; 2 h, read-out: Death of test fungi, % to the control, Candida albicans 2 hrs) [%]	killing at 0.05 % (Candida albicans; 20 h, read-out: Death of test fungi, % to the control, Candida albicans 20 hrs) [%]	Mycelium growth inhibition, % to the control, Penicillium sporum (Penicillium sporum) [%]	killing at 0.5 % (Staphylococcus aureus) [%]	Mycelium growth inhibition, % to the control, Aspergillus niger (Aspergillus niger) [%]	killing at 3 % (ascarid ovi) [%]	killing at 0.05 % (Candida tropicalis; 2 h, read-out: Death of test fungi, % to the control, Candida tropicalis 2 hrs) [%]	killing at 0.05 % (Candida tropicalis; 20 h, read-out: Death of test fungi, % to the control, Candida tropicalis 20 hrs) [%]	Mycelium growth inhibition, % to the control, Helminthosporum saturem (Helminthosporum saturem) [%]	Mycelium growth inhibition, % to the control, Fusarium oxisporum (Fusarium oxysporum) [%]	Death of viruses (%) at 60 minutes exposure, Infectant of poliomyelitis [2] [%]
COP(=O)(OC)C(O)C(Cl)(Cl)Cl (stereo not shown) [Known insecticidal preparation, O,O-Dimethyl-(1-hydroxy-2,2,2-tri-chloroethyl)-phosphonate]	225 - 1,200 mg/kg	90	81	84	–	–	–	–	–	–	–	–	–	–	–	–	–	–	–
O=[N+]([O-])c1ccc(C(Cl)C(CCl)NP(=O)(O)O)cc1 (stereo not shown) [Example 3]	–	–	–	–	80	100	98	100	100	100	100	100	100	100	99	100	100	68	80
